For assay [1], the species on record is Oryctolagus cuniculus. Nature of the assay: In vitro inhibitory activity against collagen induced rabbit platelet aggregation. The class given is functional.
In assay [2] the test system is Rattus norvegicus. Nature of the assay: In vivo anti-hyperplastic activity was evaluated by the inhibition of balloon injury model in rats at a dose of 30 mg/kg (p.o.). The class given is functional. The following applies: for inhibition in vivo at 30 mg/kg: Rattus norvegicus, po.
In assay [3] the test system is Mus musculus. In words: In vivo anti-thrombotic activity was evaluated by the inhibition of pulmonary thromboembolism model in mice at a dose of 30 mg/kg (p.o.). The format is functional. The following applies: route oral.
Assay [4] can be described thus: (§1) In vitro inhibitory activity against Adenosine diphosphate (ADP) induced rabbit platelet aggregation. The class given is functional, Oryctolagus cuniculus.
The test system of assay [5] is Rattus norvegicus. Nature of the assay: In vivo anti-hyperplastic activity was evaluated by the inhibition of balloon injury model in rats at a dose of 10 mg/kg (p.o.). The class given is functional. Conditions: route oral.
For assay [6], the system named is Mus musculus. In words: In vivo anti-thrombotic activity was evaluated by the inhibition of pulmonary thromboembolism model in mice at a dose of 10 mg/kg (p.o.). The format is functional. The following applies: route oral.
The species named for assay [7] is Oryctolagus cuniculus. The description is as §1. The format is functional.

Some results are limits rather than exact numbers.

As usually defined, the IC50 is the point on the concentration scale where inhibition reaches its midpoint. As usually defined, the inhibition in vivo is the share of the control response that was lost under treatment. Low readings indicate a response near the control, high ones a response far below the control. As to `O=C(NCCCOc1ccc2nc(O)ccc2c1)N(C1CCCCCC1)[C@H]1CCCC[C@@H]1O`, the values for the IC50 (in the assay listed under Oryctolagus cuniculus [1] (Oryctolagus cuniculus); in assay [4] (Oryctolagus cuniculus)) were 0.03 µM and 0.12 µM, respectively. For the same compound, the inhibition in vivo at 30 mg/kg turned out to be 11% with Rattus norvegicus [2] and 69% in the assay on Mus musculus [3].

`O=C(NCCCOc1ccc2nc(O)ccc2c1)N(C1CC1)[C@H]1CCCC[C@@H]1O`: the IC50 in the assay filed under Oryctolagus cuniculus [1] (Oryctolagus cuniculus) came out at 2.2 µM; in assay [4] (Oryctolagus cuniculus), 2.4 µM. Further, the inhibition in vivo at 10 mg/kg in the assay on Rattus norvegicus [5] turned out to be 1%; in the assay on Mus musculus [6], 29%. Moreover, the inhibition in vivo at 30 mg/kg stood at 13% in the assay on Rattus norvegicus [2] and 100% in the assay on Mus musculus [3].

As to `O=C(NCCCOc1ccc2nc(O)ccc2c1)N(C1CC1)[C@@H]1CCC[C@H]1O`, the IC50 stood at 3.5 µM in the assay listed under Oryctolagus cuniculus [1] (Oryctolagus cuniculus) and 2.5 µM in assay [4] (Oryctolagus cuniculus). The inhibition in vivo at 30 mg/kg with Rattus norvegicus [2] is 23%; with Mus musculus [3], 67%.

As for `CCN(CCCOc1ccc2nc(O)ccc2c1)C(=O)N(C)C1CCCCC1`, the IC50 is 16 µM in the assay listed under Oryctolagus cuniculus [1] (Oryctolagus cuniculus) and 15 µM in assay [4] (Oryctolagus cuniculus). The inhibition in vivo at 30 mg/kg in the assay with Rattus norvegicus [2] was found to be 12%; with Mus musculus [3], 58%.

`O=C(NCCCOc1ccc2nc(O)ccc2c1)N(C1CC1)[C@H]1CCCC[C@H]1O`: the IC50 was determined as 3.3 µM in the assay listed under Oryctolagus cuniculus [1] (Oryctolagus cuniculus) and 2.3 µM in assay [4] (Oryctolagus cuniculus). Moreover, the values for the inhibition in vivo at 30 mg/kg in the assay with Rattus norvegicus [2] and with Mus musculus [3] were 19% and 100%, respectively.

For `CCCCO[C@H]1CCCC[C@@H]1N(C(=O)NCCCOc1ccc2nc(O)ccc2c1)C1CC1`, the IC50 in the assay filed under Oryctolagus cuniculus [1] (Oryctolagus cuniculus) stood at 3.5 µM; in assay [4] (Oryctolagus cuniculus) it was 0.71 µM. Also, the results for the inhibition in vivo at 30 mg/kg in the assay with Rattus norvegicus [2] and in the assay with Mus musculus [3] were 19% and 33%, respectively.

Take `O=C(NCCCOc1ccc2nc(O)ccc2c1)N(C1CC1)[C@@H]1CCC[C@@H](O)C1`: the values for the IC50 (in the assay listed under Oryctolagus cuniculus [1] (Oryctolagus cuniculus); in assay [4] (Oryctolagus cuniculus)) were 2.8 µM and 3 µM, respectively. In addition, the figures for the inhibition in vivo at 30 mg/kg in the assay with Rattus norvegicus [2] and with Mus musculus [3] were 0% and 20%, respectively.

In the case of `O=C(NCCCOc1ccc2nc(O)ccc2c1)N(C1CCCCCCC1)[C@H]1CCCC[C@@H]1O`, the IC50 in the assay listed under Oryctolagus cuniculus [1] (Oryctolagus cuniculus) was 0.03 µM; in assay [4] (Oryctolagus cuniculus), 0.08 µM. The inhibition in vivo at 30 mg/kg in the assay on Rattus norvegicus [2] turned out to be 27%; with Mus musculus [3], 100%.

On to `CN(C(=O)NCCCOc1ccc2nc(O)ccc2c1)[C@@H]1CCCC[C@H]1O`, for which the IC50 was 15 µM in the assay filed under Oryctolagus cuniculus [1] (Oryctolagus cuniculus) and 3.9 µM in assay [4] (Oryctolagus cuniculus). The inhibition in vivo at 30 mg/kg worked out at 10% with Rattus norvegicus [2] and 18% with Mus musculus [3].

As for `O=C(NCCCOc1ccc2nc(O)ccc2c1)N(C1CCCCC1)C1CC1`, the IC50 in the assay listed under Oryctolagus cuniculus [1] (Oryctolagus cuniculus) was 2.4 µM; in assay [4] (Oryctolagus cuniculus), 2.2 µM. Moreover, the inhibition in vivo at 30 mg/kg with Rattus norvegicus [2] was 15%; in the assay on Mus musculus [3], 100%.

In the case of `O=C(NCCCOc1ccc2nc(O)ccc2c1)N(C1CCCCC1)[C@H]1CCCC[C@@H]1O`, the figures for the IC50 (in the assay filed under Oryctolagus cuniculus [1] (Oryctolagus cuniculus); in assay [4] (Oryctolagus cuniculus)) were 0.15 µM and 0.19 µM, respectively. For the same compound, the inhibition in vivo at 30 mg/kg in the assay on Rattus norvegicus [2] worked out at 18%; in the assay on Mus musculus [3], 57%.

Consider `O=C(NCCCOc1ccc2nc(O)ccc2c1)N(C1CCCC1)[C@H]1CCCC[C@@H]1O`, for which the values for the IC50 (in the assay listed under Oryctolagus cuniculus [1] (Oryctolagus cuniculus); in assay [4] (Oryctolagus cuniculus)) were 1.8 µM and 0.27 µM, respectively. In addition, the inhibition in vivo at 30 mg/kg in the assay on Rattus norvegicus [2] came to 20%; with Mus musculus [3], 78%.

Turning to `CN(C(=O)NCCCOc1ccc2nc(O)ccc2c1)C1CCCCC1`, the IC50 came to 2.7 µM in the assay listed under Oryctolagus cuniculus [1] (Oryctolagus cuniculus) and 2.6 µM in the assay filed under Oryctolagus cuniculus [7]. Further, the inhibition in vivo at 30 mg/kg in the assay on Rattus norvegicus [2] is 15%; with Mus musculus [3], 21%.

For `O=C(NCCCOc1ccc2nc(O)ccc2c1)N(C1CC1)[C@@H]1CCCCC[C@H]1O`, the IC50 in the assay listed under Oryctolagus cuniculus [1] (Oryctolagus cuniculus) stood at 2.8 µM; in assay [4] (Oryctolagus cuniculus), 2.6 µM. Moreover, the inhibition in vivo at 30 mg/kg in the assay with Rattus norvegicus [2] turned out to be 0%; with Mus musculus [3] it was 44%.

Consider `O=C(NCCCOc1ccc2nc(O)ccc2c1)N(C1CC1)[C@H]1CC[C@H](O)CC1`, for which the IC50 is 3.1 µM in the assay filed under Oryctolagus cuniculus [1] (Oryctolagus cuniculus) and 3.8 µM in assay [4] (Oryctolagus cuniculus). The inhibition in vivo at 30 mg/kg was determined as 7% in the assay with Rattus norvegicus [2] and 0% in the assay on Mus musculus [3].

For orientation: Inhibition means the drop in the measured response relative to a control, in per cent. With `O=C(NCCCOc1ccc2[nH]c(=O)ccc2c1)N(C1CC1)[C@@H]1CCCC[C@H]1O` (stereo in doubt; 1d) [K-134], the IC50 in the assay filed under Oryctolagus cuniculus [1] worked out at 3.1 µM; in assay [4] it was 2.5 µM. In addition, in the assay with Rattus norvegicus [2] (route oral, 30 mg/kg), the Inhibition was found to be 29%.

Regarding `O=C(NCCCOc1ccc2[nH]c(=O)ccc2c1)N(C1CC1)[C@@H]1CCCC[C@H]1O` (stereo in doubt; 1p) [K-134], the IC50 was 2.2 µM in the assay listed under Oryctolagus cuniculus [1] (Oryctolagus cuniculus) and 2.3 µM in assay [4] (Oryctolagus cuniculus). The inhibition in vivo at 10 mg/kg with Rattus norvegicus [5] was 26%; in the assay with Mus musculus [6], 88%. Also, the inhibition in vivo at 30 mg/kg was 24% in the assay with Rattus norvegicus [2] and 100% in the assay on Mus musculus [3].

On to `CC(=O)Oc1ccccc1C(=O)O` [ASPIRIN], for which the IC50 (in the assay listed under Oryctolagus cuniculus [1] (Oryctolagus cuniculus); in assay [4] (Oryctolagus cuniculus)) was > 1000 µM in each case. Further, the inhibition in vivo at 30 mg/kg with Rattus norvegicus [2] stood at 16%; in the assay with Mus musculus [3], 33%.

With `CN(C(=O)CCCOc1ccc2[nH]c(=O)ccc2c1)C1CCCCC1` [CILOSTAMIDE], the IC50 in the assay listed under Oryctolagus cuniculus [1] (Oryctolagus cuniculus) worked out at 2.2 µM; in assay [4] (Oryctolagus cuniculus) it was 2.4 µM. For the same compound, the inhibition in vivo at 30 mg/kg is 42% in the assay with Rattus norvegicus [2] and 84% in the assay on Mus musculus [3].

As for `O=C1CCc2cc(OCCCCc3nnnn3C3CCCCC3)ccc2N1` [CILOSTAZOL], the IC50 in the assay listed under Oryctolagus cuniculus [1] (Oryctolagus cuniculus) came out at 31 µM; in assay [4] (Oryctolagus cuniculus), 29 µM. The inhibition in vivo at 30 mg/kg came out at 12% in the assay on Rattus norvegicus [2] and 82% in the assay on Mus musculus [3].

The values above are taken from ChEMBL document CHEMBL1130834, “2(1H)-quinolinone derivatives as novel anti-arteriostenotic agents showing anti-thrombotic and anti-hyperplastic activities” (Bioorg Med Chem Lett, 1998).
